Results as given in ChEMBL document CHEMBL4888484, “Replenishing the malaria drug discovery pipeline: Screening and hit evaluation of the MMV Hit Generation Library 1 (HGL1) against asexual blood stage Plasmodium falciparum ,using a nano luciferase reporter read-out” (2022).

Assays:
Plasmodium falciparum [1] = test: Hit confirmation in dose-response curve in NF54 pLDH assay, at 72h; format: functional, organism-based; design: timepoint 72 hour; conditions: NF54, Erythrocyte
[2] = Hit confirmation in dose-response curve in HepG2 cytotoxicity assay, at 72h; format: toxicity, cell-based; design: timepoint 72 hour; conditions: human, HepG2 cells
Plasmodium falciparum [3] = test: Hit confirmation in dose-response curve in Dd2 pLDH assay, at 72h; format: functional, organism-based; design: timepoint 72 hour; conditions: Dd2, Erythrocyte
Plasmodium falciparum [4] = test: Hit confirmation in dose-response curve in NF54 nanoGlo assay, at 72h; format: functional, organism-based, Erythrocyte; design: timepoint 72 hour; conditions: Plasmodium falciparum, NF54, Erythrocyte, 72 h
[5] = Re-testing in dose-response curve in HepG2 cytotoxicity assay, at 72h; format: toxicity, cell-based; design: timepoint 72 hour; conditions: human, HepG2 cells
Plasmodium falciparum [6] = test: Hit confirmation in dose-response curve in NF54 nanoGlo assay, at 12h; format: functional, organism-based, Erythrocyte; design: timepoint 12 hour; conditions: Plasmodium falciparum, NF54, Erythrocyte, 12 h
Plasmodium falciparum [7] = test: Re-testing in dose-response curve in 3D7 pLDH assay, at 72h; format: functional, organism-based; design: timepoint 72 hour; conditions: 3D7, Erythrocyte

SMILES | IC50 (Plasmodium falciparum [1]) | IC50 (Plasmodium falciparum [3]) | IC50 (Plasmodium falciparum [4]) | IC50 (Plasmodium falciparum [6]) | IC50 (Plasmodium falciparum [7]) | IC50 at 72 h [2] | IC50 at 72 h [5]
COc1ccc(F)cc1S(=O)(=O)N1CCc2noc(N)c2C1 | 912 nM | 955 nM | 158 nM | > 10000 nM | > 25000 nM | > 10000 nM | > 25000 nM
CCc1ccc(C(=O)NCCCC2CCCC2O)cc1S(=O)(=O)N1CCOCC1 (stereo not drawn) | 4370 nM | 977 nM | 1910 nM | > 10000 nM | 2490 nM | > 10000 nM | > 25000 nM
CCC1=C(c2ccc(C)cc2)S(=O)(=O)N=C1N1CCC(C(=O)NCCN2CCCC[C@@H]2C)CC1 | 1350 nM | 1410 nM | 2690 nM | > 10000 nM | 522 nM | > 10000 nM | > 25000 nM
Cc1ccc(Nc2ccc(N3CCNCC3)nn2)nc1 | 3160 nM | 1740 nM | 1580 nM | 3090 nM | 5090 nM | > 10000 nM | > 25000 nM
CC(=O)N(C1CCN(Cc2ccccc2)CC1)C1(C(=O)Nc2ccc3[nH]ccc3c2)CCN(C)CC1 | 1260 nM | 1230 nM | 1660 nM | 3980 nM | 1230 nM | > 10000 nM | > 25000 nM
CC(C)N(CC(=O)Nc1nccs1)Cc1ccccn1 | 1700 nM | 891 nM | 692 nM | > 10000 nM | 9790 nM | > 10000 nM | > 24800 nM
Cc1cc(NC(=O)C(=O)NC2CC(C)CC(C)(C)C2)n(-c2nc3c(c(=O)[nH]2)CCC3)n1 (stereo not drawn) | 2090 nM | 1780 nM | 1150 nM | > 10000 nM | 392 nM | > 10000 nM | 118 nM
Clc1cccc(CNCCCNc2ccncc2)c1Cl | 2000 nM | 1550 nM | 2000 nM | 7590 nM | 1150 nM | > 10000 nM | 16300 nM
CCOC(=O)c1c(CN2CCCC2)n(C)c2cc(-c3cccnc3)c(O)c(Cn3ccnc3)c12 | 174 nM | 132 nM | 145 nM | > 10000 nM | 3650 nM | > 10000 nM | > 25000 nM
COc1cccc(-c2cc(O)cc(CC[C@H]3CCCCN3)c2)n1 | 1820 nM | 1550 nM | 1230 nM | 1730 nM | 1280 nM | > 10000 nM | > 25000 nM
Oc1ccccc1-c1cnc(C(F)(F)F)s1 | 1050 nM | 1020 nM | 776 nM | 1320 nM | 5000 nM | > 10000 nM | 19400 nM
Cc1cnccc1NCCNCc1cccc(O)c1Cl | 1480 nM | 1230 nM | 1120 nM | > 10000 nM | 943 nM | > 10000 nM | > 25000 nM
Cc1ccc(O)c(CNCC2(c3ccccc3Cl)CCOCC2)n1 | 575 nM | 437 nM | 209 nM | 316 nM | 444 nM | > 10000 nM | > 25000 nM
O=S(=O)(NC12CCCC1CNC2)c1onc(C2CC2)c1Cl (stereo not drawn) | 1480 nM | 1150 nM | 891 nM | 1620 nM | 10500 nM | > 10000 nM | > 25000 nM
CC1(C)OCc2cc(CNc3ccc4oc(=O)[nH]c4c3)ccc2O1 | 759 nM | 661 nM | 550 nM | 851 nM | 267 nM | > 10000 nM | 20400 nM
Clc1ccc(COc2ccc(Cl)cc2CNCCCn2ccnc2)c(Cl)c1 | 1260 nM | 1380 nM | 1410 nM | 3020 nM | 1010 nM | > 10000 nM | 6110 nM
Cc1cnccc1NCCNC1CCN(c2ccc3c(c2)CCC3)CC1 | 1020 nM | 646 nM | 4570 nM | 7080 nM | 321 nM | 8130 nM | 5420 nM
O=S(=O)(Nc1ccc(O)c2cccnc12)N1CCCC1 | 1320 nM | 1450 nM | 2690 nM | 10000 nM | 10500 nM | > 10000 nM | 12500 nM
Cc1cccc(CN(Cc2cccc(C)n2)C[C@H]2CCCCO2)n1 | 676 nM | 275 nM | 229 nM | 2340 nM | 1320 nM | > 10000 nM | > 25000 nM
CN1CC[C@]2(CCN(c3ccnc4ccsc34)C2)C1 | 380 nM | 407 nM | 550 nM | 912 nM | 461 nM | > 10000 nM | > 24800 nM
N#Cc1cc(S(=O)(=O)NCCN(C2CC2)S(=O)(=O)c2ccc(Cl)c(C#N)c2)ccc1Cl | 3310 nM | 2000 nM | 2040 nM | 2820 nM | 1100 nM | > 10000 nM | 13600 nM
CC(C)c1cc(CN(Cc2cc(C(C)C)c(O)c(C(C)C)c2)C2CCCCC2)cc(C(C)C)c1O | 151 nM | 100 nM | 100 nM | 631 nM | 113 nM | > 10000 nM | > 8330 nM
CCc1nc2c(C(=O)N3CCOc4c(C)cc(C)cc43)ccnc2[nH]1 | 4270 nM | 1290 nM | 1410 nM | > 10000 nM | 234 nM | > 10000 nM | > 25000 nM

Second part, led by results:

IC50 (Plasmodium falciparum [1]) | IC50 (Plasmodium falciparum [3]) | IC50 (Plasmodium falciparum [4]) | IC50 (Plasmodium falciparum [6]) | IC50 (Plasmodium falciparum [7]) | SMILES | IC50 at 72 h [2] | IC50 at 72 h [5]
447 nM | 501 nM | 1700 nM | > 10000 nM | 709 nM | NC(=NCc1cccc2cccnc12)N1CCN(c2nccs2)CC1 | > 10000 nM | > 25000 nM
1700 nM | 1170 nM | 955 nM | 4790 nM | ~459 nM | CCN1CCN(c2cccc(NC(=O)c3ccc4[nH]c5ccccc5c(=O)c4c3)c2)CC1 | > 10000 nM | 7420 nM
2950 nM | 1230 nM | 759 nM | 1100 nM | 6520 nM | COc1ccc([C@@H]2C=C(c3ccc(Cl)cc3)N=C3NC(NC(=O)c4ccccc4OC)=NN32)cc1 | > 10000 nM | > 25000 nM
2100 nM | 1910 nM | 1380 nM | 2510 nM | 1150 nM | CN1CCCN(c2ccc(NC(=O)c3nn(-c4ccccc4)c(=O)c4ccccc34)cc2F)CC1 | > 10000 nM | 7350 nM
282 nM | 1200 nM | 309 nM | 7240 nM | 54.8 nM | CCOc1cccc(-c2ccc3nc(-c4cccc(OC)c4)c(CCC(=O)NCCN4CCCC4)n3c2)c1 | > 10000 nM | 15900 nM
2750 nM | 1100 nM | 630 nM | 1070 nM | 4930 nM | COc1ccccc1C(=O)NC1=NN2C(=NC(c3ccc(Cl)cc3)=C[C@H]2c2ccc(Cl)cc2)N1 | > 10000 nM | > 25000 nM
1780 nM | 1700 nM | 1450 nM | 4900 nM | 15600 nM | COc1ccnc(CN2CCC[C@H](c3nc(-c4ccccc4)c[nH]3)C2)c1OC | > 10000 nM | 10200 nM
1380 nM | 1170 nM | 912 nM | 1320 nM | 609 nM | CCN1CCN(c2cccc(NC(=O)c3cc(F)cc4c(=O)c5cc(F)ccc5[nH]c34)c2)CC1 | > 10000 nM | 3480 nM
832 nM | 602 nM | 275 nM | 407 nM | 291 nM | Cc1c([C@@H](NCc2ncccc2O)C(C)C)oc2ccccc12 | > 10000 nM | > 25000 nM
2040 nM | 871 nM | 501 nM | > 10000 nM | 289 nM | COc1ccc(-c2cc(C(=O)N[C@H]3CCN(c4ccc(=O)[nH]n4)C3)c(C)n2C)cc1 | > 10000 nM | > 25000 nM
562 nM | 1170 nM | 741 nM | 1510 nM | ~467 nM | Clc1ccc(Cn2cc(CNCCCn3ccnc3)c3ccccc32)c(Cl)c1 | > 10000 nM | 3900 nM
1410 nM | 1450 nM | 468 nM | 1260 nM | 1710 nM | C[C@H]1CCCN(c2nc(-c3ccccn3)nc3ccccc23)C1 | > 10000 nM | 1760 nM
3310 nM | 1480 nM | 1480 nM | > 10000 nM | 545 nM | CN(CCNC(=O)CCc1cn(-c2ccccc2)nc1-c1ccc2c(c1)OCO2)C1CCCCC1 | > 10000 nM | ~9240 nM
1100 nM | 955 nM | 251 nM | > 10000 nM | 2110 nM | Nc1c(-c2nc3ccccc3[nH]2)c2nc3ccccc3nc2n1Cc1ccccc1F | > 10000 nM | 24700 nM
2570 nM | 955 nM | 490 nM | 631 nM | 1390 nM | O=C(Nc1cnc2ccccc2c1)c1ccccc1C(=O)c1ccc(F)cc1 | > 10000 nM | > 25000 nM
1410 nM | 1780 nM | 831 nM | 1510 nM | 1080 nM | Cc1ccc(NC(=O)c2c(C)nc3sc(C(=O)NCc4ccccc4)c(N)c3c2-c2ccccc2Cl)c(C)c1 | > 10000 nM | > 25000 nM
